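Test compounds were applied to cells in 96-well plates for 48 hours at 5 doses. The concentration for 50% growth inhibition is given as GI50.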 Activity calls are given as the source filed them. Cut-off read from the data, not from the text of the source: active = GI50 up to about 1.1 µM and inactive = higher.
Legend:
Assay in all cases: NCI tumour cell line growth inhibition, 48 h
SK-MEL-2 = test system: SK-MEL-2
NCI-H460 = test system: NCI-H460
CCRF-CEM = test system: CCRF-CEM
SK-OV-3 = test system: SK-OV-3
K562 = test system: K562
MOLT-4 = test system: MOLT-4
MDA-MB-231 = test system: MDA-MB-231
SR = test system: SR
NCI-H226 = test system: NCI-H226
OVCAR-4 = test system: OVCAR-4
786-0 = test system: 786-0
SF-539 = test system: SF-539
LOX IMVI = test system: LOX IMVI
HT-29 = test system: HT-29
MDA-N = test system: MDA-N
HOP-62 = test system: HOP-62
HCT-15 = test system: HCT-15
SW-620 = test system: SW-620
Hs-578T = test system: Hs-578T
MCF7 = test system: MCF7

SMILES	GI50 (SK-MEL-2)	GI50 (NCI-H460)	GI50 (CCRF-CEM)	GI50 (SK-OV-3)	GI50 (K562)	GI50 (MOLT-4)	GI50 (MDA-MB-231)	GI50 (SR)	GI50 (NCI-H226)	GI50 (OVCAR-4)	GI50 (786-0)	GI50 (SF-539)	GI50 (LOX IMVI)	GI50 (HT-29)	GI50 (MDA-N)	GI50 (HOP-62)	GI50 (HCT-15) [µM]	GI50 (SW-620)	GI50 (Hs-578T)	GI50 (MCF7)
Cc1cc(N(C)c2ccccc2)nc(N(C)c2ccccc2)n1	15.8 µM (inactive)	49.9 µM (inactive)	23.6 µM (inactive)	> 100 µM (inactive)	49.9 µM (inactive)	33.7 µM (inactive)	33.2 µM (inactive)	27.7 µM (inactive)	34.6 µM (inactive)	> 100 µM (inactive)	41.3 µM (inactive)	27.1 µM (inactive)	13.3 µM (inactive)	17.9 µM (inactive)	52.4 µM (inactive)	31.2 µM (inactive)	32.1	43.1 µM (inactive)	26.8 µM (inactive)	33.7 µM (inactive)
CN(C)[C@@H]1C(O)=C(C(=O)NCNc2nc3[nH]nnc3c(=O)[nH]2)C(=O)[C@@]2(O)C(O)=C3C(=O)c4c(O)cccc4[C@@](C)(O)[C@H]3C[C@@H]12	0.139 µM (active)	24.3 µM (inactive)	0.228 µM (active)	0.723 µM (active)	0.402 µM (active)	0.288 µM (active)	0.883 µM (active)	0.312 µM (active)	1.73 µM (inactive)	8.63 µM (inactive)	0.637 µM (active)	0.641 µM (active)	0.679 µM (active)	43.7 µM (inactive)	0.393 µM (active)	0.518 µM (active)	42.5	0.471 µM (active)	2 µM (inactive)	66.1 µM (inactive)
NC1CCC(c2cc3ccccc3s2)(N2CCCCC2)CC1 (stereo not given)	1.55 µM (inactive)	1.63 µM (inactive)	1.01 µM (active)	10.6 µM (inactive)	1.63 µM (inactive)	1.32 µM (inactive)	3.35 µM (inactive)	1.54 µM (inactive)	24.1 µM (inactive)	3.33 µM (inactive)	1.5 µM (inactive)	2.06 µM (inactive)	1.51 µM (inactive)	1.21 µM (inactive)	1.74 µM (inactive)	1.35 µM (inactive)	1.77	1.61 µM (inactive)	4.11 µM (inactive)	1.68 µM (inactive)
CN(C)CCCNc1ccnc2cc([N+](=O)[O-])ccc12	14.5 µM (inactive)	4.97 µM (inactive)	> 100 µM (inactive)	21.2 µM (inactive)	> 100 µM (inactive)	> 100 µM (inactive)	13.3 µM (inactive)	> 100 µM (inactive)	14.9 µM (inactive)	3.35 µM (inactive)	10.4 µM (inactive)	16.3 µM (inactive)	11.4 µM (inactive)	2.68 µM (inactive)	12.1 µM (inactive)	16 µM (inactive)	12.1	7.45 µM (inactive)	17.9 µM (inactive)	4.47 µM (inactive)

Source: ChEMBL document CHEMBL1201862, “PubChem BioAssay data set” (2004)
